The structures appear in SMILES notation. Where two headings read alike, the source gives them in different places.

Assay [1] deals with HSV-1 thymidine kinase (TK) (Human herpesvirus 1, UniProt P0DTH5). As to the kind of experiment: Inhibition of HSV-1 thymidine kinase (3H-thymidine phosphorylation, DEAE-cellulose disc assay). It is filed as biochemical. The procedure:
(§1) In this test procedure, the assay mixture contains […] Tris HCl, pH 8, 5 mmol magnesium chloride, 5 mmol ATP, […] 3H-thymidine (50 Ci/mmol), suitably diluted enzyme preparation and various concentrations of test compounds in a total volume of […]. Assays are incubated at 37° C. for 30 minutes and the reaction is terminated by immersion in a boiling water bath for 2 minutes. […] aliquots from each assay are then dried on to DEAE-cellulose paper discs and the unphosphorylated 3H-thymidine is removed by washing in 4 mmol ammonium formate. The radioactivity remaining bound to the discs is then measured by scintillation spectrophotometry. The degree of inhibition at each concentration of test compound is expressed as a percentage of the control reaction (100%) after subtracting a measured blank value which represents the amount of radioactivity bound to the disc from a reaction containing heat-inactivated enzymes. The IC50 value, namely the concentration of test compound which inhibits enzyme activity by 50%, is then calculated.

In assay [2] the target is HSV-2 thymidine kinase (TK) (Human herpesvirus 2, UniProt P04407). As to the kind of experiment: Inhibition of HSV-2 thymidine kinase (3H-thymidine phosphorylation, DEAE-cellulose disc assay). It is filed as biochemical. The procedure:
as §1

Setting [3] is: 37° C., 30 minutes, pH 8, 3H-thymidine substrate, read-out: Activity against HSV-1 TK IC50 (nmol).
The mark [4] stands for this setting: 37° C., 30 minutes, pH 8, 3H-thymidine substrate, read-out: Activity against HSV-2 TK IC50 (nmol).

Sequence of HSV-2 thymidine kinase (TK) (P04407 whole entry): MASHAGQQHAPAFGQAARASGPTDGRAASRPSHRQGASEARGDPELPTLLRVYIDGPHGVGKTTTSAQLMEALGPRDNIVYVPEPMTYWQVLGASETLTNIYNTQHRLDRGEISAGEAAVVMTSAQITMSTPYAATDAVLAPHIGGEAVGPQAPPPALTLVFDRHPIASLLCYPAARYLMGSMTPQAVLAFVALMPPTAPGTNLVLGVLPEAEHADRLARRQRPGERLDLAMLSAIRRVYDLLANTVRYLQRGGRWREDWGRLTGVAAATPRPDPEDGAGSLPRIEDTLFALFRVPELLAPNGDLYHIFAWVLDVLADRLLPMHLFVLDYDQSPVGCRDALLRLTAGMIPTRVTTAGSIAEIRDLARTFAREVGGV
Sequence of HSV-1 thymidine kinase (TK) (P0DTH5 whole entry): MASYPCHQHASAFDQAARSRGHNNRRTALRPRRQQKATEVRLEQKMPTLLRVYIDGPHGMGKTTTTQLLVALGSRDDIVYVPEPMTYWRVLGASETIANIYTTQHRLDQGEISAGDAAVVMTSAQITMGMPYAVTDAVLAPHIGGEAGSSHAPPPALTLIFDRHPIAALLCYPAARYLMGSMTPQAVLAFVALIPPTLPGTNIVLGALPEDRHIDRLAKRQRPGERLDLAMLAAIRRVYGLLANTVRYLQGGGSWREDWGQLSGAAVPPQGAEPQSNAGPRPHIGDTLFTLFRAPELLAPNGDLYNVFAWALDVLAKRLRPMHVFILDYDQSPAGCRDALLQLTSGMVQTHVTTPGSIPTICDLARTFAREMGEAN

As for `CCc1cn([C@H]2C[C@H](O)[C@@H](CNC(=O)C3c4ccccc4Oc4ccccc43)O2)c(=O)[nH]c1=O` [2',5'-dideoxy-5-ethyl-5'-[(9-xanthenyl)carboxamido]uridine, reference compound], the results for the IC50 in assay [1] and in assay [2] were 4.2 nM and 0.34 nM, respectively.
On to `CC1(C)CC(=O)C2=C(C1)NC1=C(C(=O)CC(C)(C)C1)C2c1ccc(Cl)c(Oc2ccccc2)c1` [A, 9-(4-chloro-3-phenoxyphenyl)-3,4,6,7,9,10-hexahydro-3,3,6,6-tetramethyl-1,8(2H,5H)-acridinedione], for which the results for the IC50 in assay [1] (setting [3]) and in assay [2] (setting [4]) were 0.3 nM and 0.095 nM, respectively.
For `CC1(C)CC(=O)C2=C(C1)NC1=C(C(=O)CC(C)(C)C1)C2c1ccc(Cl)c(Sc2ccccc2)c1` [B, 9-(4-chloro-3-phenylthiophenyl)-3,4,6,7,9,10-hexahydro-3,3,6,6-tetramethyl-1,8(2H,5H)-acridinedione], the IC50 came to 0.56 nM in assay [1] (setting [3]) and 0.12 nM in assay [2] (setting [4]).
Turning to `CC1(C)CC(=O)C2=C(C1)NC1=C(C(=O)CC(C)(C)C1)C2c1ccc(Cl)c(-c2ccccc2)c1` [C, 9-[6-chloro-3-(1,1'-biphenylyl)]-3,4,6,7,9,10-hexahydro-3,3,6,6-tetramethyl-1,8(2H,5H)-acridinedione], the IC50 in assay [1] (setting [3]) was determined as 0.52 nM; in assay [2] (setting [4]), 0.27 nM.
`CC1(C)CC(=O)C2=C(C1)NC1=C(C(=O)CC(C)(C)C1)C2c1ccc(Cl)c(Oc2ccncc2)c1` [Compound I, 9-[4-chloro-3-(4-pyridyloxy)-phenyl]-3,4,6,7,9,10-hexahydro-3,3,6,6-tetramethyl-1,8(2H,5H)-acridinedione]: the IC50 came to 0.8 nM in assay [1] (setting [3]) and 0.19 nM in assay [2] (setting [4]).
On the same counts, the results for `CC1(C)CC(=O)C2=C(C1)NC1=C(C(=O)CC(C)(C)C1)C2c1ccc(Cl)c(Cl)c1` [D, 9-(3,4-dichlorophenyl)-3,4,6,7,9,10-hexahydro-3,3,6,6-tetramethyl-1,8(2H,5H)-acridinedione] are 9.4 nM and 0.64 nM.
Regarding `CC1(C)CC(=O)C2=C(C1)NC1=C(C(=O)CC(C)(C)C1)C2c1ccc(Cl)c(F)c1` [E, 9-(4-chloro-3-fluorophenyl)-3,4,6,7,9,10-hexahydro-3,3,6,6-tetramethyl-1,8(2H,5H)-acridinedione], the IC50 was 5.9 nM in assay [1] (setting [3]) and 0.44 nM in assay [2] (setting [4]).
In the case of `CC1(C)CC(=O)C2=C(C1)NC1=C(C(=O)CC(C)(C)C1)C2c1ccc(Cl)c(-n2cccc2)c1` [F, 9-[4-chloro-3-(1H-pyrrol-1-yl)phenyl]-3,4,6,7,9,10-hexahydro-3,3,6,6-tetramethyl-1,8(2H,5H)-acridinedione], the IC50 in assay [1] (setting [3]) is 0.44 nM; in assay [2] (setting [4]), 0.18 nM.
As to `CC1(C)CC(=O)C2=C(C1)NC1=C(C(=O)CC(C)(C)C1)C2c1cccc(Oc2ccccc2)c1` [G, 3,4,6,7,9,10-hexahydro-3,3,6,6-tetramethyl-9-(3-phenoxyphenyl)-1,8(2H,5H)-acridinedione], the figures for the IC50 in assay [1] (setting [3]) and in assay [2] (setting [4]) were 5.8 nM and 1.1 nM, respectively.
Consider `CC1(C)CC(=O)C2=C(C1)NC1=C(C(=O)CC(C)(C)C1)C2c1ccc(Br)cc1` [H, 9(4-Bromophenyl)-3,4,6,7,9,10-hexahydro-3,3,6,6-tetramethyl-1,8(2H,5H)-acidinedione], for which the IC50 came out at 12 nM in assay [1] (setting [3]) and 1.5 nM in assay [2] (setting [4]).
The corresponding values for `CC1(C)CC(=O)C2=C(C1)NC1=C(C(=O)CC(C)(C)C1)C2c1ccc([N+](=O)[O-])c(OCc2ccccc2)c1` [J, 9-(3-benzyloxy-4-nitrophenyl)-3,4,6,7,9,10-hexahydro-3,3,6,6-tetramethyl-1,8(2H,5H)-acridinedione] are 0.9 nM and 0.38 nM.
On to `CC1(C)CC(=O)C2=C(C1)NC1=C(C(=O)CC(C)(C)C1)C2c1ccc(Cl)c(Sc2ccncc2)c1` [K], for which the IC50 in assay [1] (setting [3]) was determined as 2.6 nM; in assay [2] (setting [4]), 0.54 nM.

These data come from patent US6162918A, “Xanthene and acridine derivatives” (priority 1996, dated 2000).
